Experimental data from US3937829A, “Medicinal preparation for treatment of various forms of leprosy” (priority 1973, dated 1976).

Legend:
[1] = clinico-biochemical data and blood findings in leprosy patients; assay type: in vivo, human
lymphocytes = experiment: intracellular metabolism, RNA quantity in a cell and phagocytosis; assay type: cell-based, human
[2] = concentration of sulfonic preparations in the blood during treatment; assay type: in vivo
Method: When determining the concentration of sulfonic preparations in the blood during treatment with diaminodiphenylsulfone, sulphetrone and the inventive preparations, it was observed that the concentration of the inventive preparation is twelve times as high as that of diaminodiphenylsulfone, both being administered as a powder at a dose of 0.1 g s.i.d. Futhermore, Injection of 2 ml of a 10 percent solution of the inventive preparation gave a concentration in the blood four times that which resulted from the introduction of 1 ml of 15-10 percent solution of sulphetrone.

[3] = solubility and reaction of aqueous solutions; assay type: physicochemical
Method: (§1) The preparation is soluble in diluted alkalis, dimethylformamide and dimethysulfoxide. Aqueous solutions of the preparation give an acid reaction. M.p. of the preparation lies at 233°-234°C, at temperatures above 235°C it decomposes; the preparation withstands heating at 150°C during 2 hours, at 100°C during 5 hours without decomposition.

[4] = toxicity with respect to warm-blooded animals
[5] = thermal stability (heating); assay type: physicochemical
Method: as §1

[6] = toxico-biological action during a three-month period (biochemical and histomorphological analyses); assay type: in vivo, white mice, rats and cats; conditions: compared to control animals
From the text: Toxico-biological action of the preparation was studied in animals of the three species, viz., white mice, rats and cats. As a result, it was established that introduction of the medicinal preparation into an animal's organism during a three-month period provokes no changes, according to the data of biochemical and histomorphological analyses, in the internal organs, endocrine glands, brain, nerves and blood as compared to the control animals.

Mycobacterium leprae = experiment: clinical experiments on 99 leprosy patients, therapeutic effect; assay type: in vivo, human
[7] = tested on: lymphocytes of the human peripheral blood; experiment: influence upon the synthesis of RNA in lymphocytes; assay type: cell-based
From the text: This may be considered as an evidence of possible differentiation of the lymphocytes or of potentiation of their specific function under the effect of the preparation.

[8] = human, in vivo
storage stability = assay type: physicochemical
From the text: The medicinal preparation according to the invention for treatment of various forms of leprosy is stable when under long-term storage.

With `Cc1[nH]c(=O)[nH]c(=O)c1S(=O)(=O)Nc1ccc(S(=O)(=O)c2ccc(NS(=O)(=O)c3c(C)[nH]c(=O)[nH]c3=O)cc2)cc1` [preparation, p,-p-bis(2,4-dioxy-6-methylpyrimidinyl-5-sulfonamido)diphenylsulfone] the anabolic effect ([1]; clinico-biochemical data) was “less manifested”, the antipyretic effect ([1]; clinico-biochemical data) was “sharply pronounced” and the amount of erythrocytes ([1]; in the course of treatment) was “increased amount of erythrocytes”. The percentage of hemoglobin ([1]; in the course of treatment) was “higher percentage of hemoglobin”, the protein metabolism ([1]; in the course of treatment) was “normalized protein metabolism” and the intracellular metabolism (lymphocytes) was “promotes the processes of intracellular metabolism”. For the same molecule, the “quantity of RNA in a cell” value (lymphocytes) was “enhances the quantity of RNA in a cell”, the “differentiation of lymphocytes and phagocytosis” value (lymphocytes; lepromatous form of leprosy) was “easier differentiation of the lymphocytes into phagocytic forms and to the completion of phagocytosis” and the “concentration in the blood relative to sulphetrone” value ([2]; 2 ml of 10 percent solution injected vs 1 ml of 15-10 percent solution of sulphetrone) was “four”. For the same molecule, the “concentration in blood relative to diaminodiphenylsulfone” value ([2]; both as a powder, 0.1 g s.i.d.) was “twelve”, the “solubility in aqueous novocain solution” value ([3]; 0.1-1-percent aqueous novocain solution) was “sparingly soluble” and the “reaction of aqueous solutions” value ([3]; aqueous solutions) was “acid reaction”. The “solubility in diluted alkalis” value ([3]; diluted alkalis) was “soluble”, the solubility in dimethylformamide ([3]; dimethylformamide) was “soluble” and the solubility in dimethysulfoxide ([3]; dimethysulfoxide) was “soluble”. For the same molecule, the “solubility in ethyl alcohol” value ([3]; ethyl alcohol) was “insoluble”, the “solubility in physiological saline” value ([3]; physiological saline) was “sparingly soluble” and the solubility in water ([3]; water) was “sparingly soluble”. The solubility ([3]; water, solutions, read-out: concentration of the active principle above which the substance precipitates) was greater than 120 mg/mL, the LD50 ([4]; in vivo) was 2600 mg/kg and the “toxicity relative to diaminodiphenylsulfone” value ([4]; white mice, rats, cats, vs diaminodiphenylsulfone) was “one-fifth”. The decomposition temperature [5] was “above 235 °C”, the “withstands heating without decomposition” value ([5]; 100°C) was 5 h and the “withstands heating without decomposition” value ([5]; 150°C) was 2 h. For the same molecule, the “changes in internal organs, endocrine glands, brain, nerves and blood” value [6] was “no changes”, the “recurrence of the disease” value (Mycobacterium leprae; 36 patients dismissed for ambulant therapy, following four years) was “None of the 36 patients” and the “therapeutic effect in patients resistant to sulfonic antileprotic preparations” value (Mycobacterium leprae; all patients resistant to sulfonic antileprotic preparations) was “good therapeutic effect”. For the same molecule, the “transformation of the lepromatous form into the tuberculoid form” value (Mycobacterium leprae; histological examinations during the course of treatment) was 7 patients, the “start of the regress of the disease” value (Mycobacterium leprae; human, in vivo) was 3-6 weeks and the “leprous reactions, neurites, inflammatory processes of the mucous membranes” value (Mycobacterium leprae; in the course of treatment) was “disappeared”. For the same molecule, the “character of the regress of the disease” value (Mycobacterium leprae; infiltrates, lepromas, causative agent, fibrosis) was “resolution of infiltrates and lepromas, appearance of a great amount of granular forms of the causative agent and bacterial decomposition, as well as occurrence of a sharply marked fibrosis”, the “effect in patients resistant to sulfonic or other antileprotic therapy” value (Mycobacterium leprae; patients resistant to sulfonic or some other antileprotic therapy) was “effective” and the “toxicity and effect on protective power, as concluded from RNA synthesis” value ([7]; increased immune response) was “non-toxic and acts as a stimulant of the protective power of the organisms”. The “synthesis of RNA in lymphocytes” value ([7]; lymphocytes of the human peripheral blood) was “promotes the synthesis of RNA”, the side effects [8] was “none of the patients was found to suffer from any side effect” and the “retention of properties on storage” value (storage stability; darkness, 18°-25°C, 5 years) was “retain the appearance, melting point, IR-spectrum data, solubility and pH value of an aqueous solution”. For the same molecule, the storage stability (storage stability; long-term storage) was “stable”.
